Data: patent US10428080B2, “TBK/IKK inhibitor compounds and uses thereof” (Merck Patent GmbH, priority 2015, dated 2019)
Where a name gives a salt, the structure may show the parent alone.

Assays:
[1] = target: T1, TBK1 (Homo sapiens, UniProt Q9UHD2); experiment: TBK Biochemical Assay; conditions: read-out: TBK1 IC50
T1 sequence (Q9UHD2 1-729): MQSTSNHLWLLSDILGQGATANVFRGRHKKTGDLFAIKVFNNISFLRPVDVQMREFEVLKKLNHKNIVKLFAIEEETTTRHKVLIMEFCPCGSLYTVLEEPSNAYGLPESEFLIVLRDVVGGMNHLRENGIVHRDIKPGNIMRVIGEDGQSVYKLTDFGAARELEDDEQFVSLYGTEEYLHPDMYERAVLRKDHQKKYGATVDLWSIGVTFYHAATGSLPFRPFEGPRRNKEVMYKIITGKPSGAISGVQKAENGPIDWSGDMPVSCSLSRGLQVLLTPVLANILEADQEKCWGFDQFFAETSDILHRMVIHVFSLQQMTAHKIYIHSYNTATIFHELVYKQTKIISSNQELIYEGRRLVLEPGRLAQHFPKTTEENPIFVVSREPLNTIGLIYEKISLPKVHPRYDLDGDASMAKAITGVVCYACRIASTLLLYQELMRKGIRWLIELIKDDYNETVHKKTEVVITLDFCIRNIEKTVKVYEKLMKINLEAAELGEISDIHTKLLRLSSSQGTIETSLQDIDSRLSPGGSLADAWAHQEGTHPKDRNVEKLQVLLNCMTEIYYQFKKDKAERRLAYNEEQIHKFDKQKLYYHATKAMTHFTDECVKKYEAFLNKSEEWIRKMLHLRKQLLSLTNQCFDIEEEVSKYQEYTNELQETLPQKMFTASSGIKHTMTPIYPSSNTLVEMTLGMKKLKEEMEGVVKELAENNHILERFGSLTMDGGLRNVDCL
Outline: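 TBK1 enzyme and substrate incubated with compounds (10-point 1:4 dilution, top 30 uM final, 1% DMSO) for 90 min at 25° C, then stopped. Substrate/product peaks read by microfluidic mobility-shift (Caliper LabChip); 10 uM staurosporine as full-inhibition control.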

[2] = target: T2, IKKε (Homo sapiens, UniProt Q14164); experiment: IKKe Biochemical Assay; conditions: read-out: IKKε IC50
T2 sequence (Q14164 1-716): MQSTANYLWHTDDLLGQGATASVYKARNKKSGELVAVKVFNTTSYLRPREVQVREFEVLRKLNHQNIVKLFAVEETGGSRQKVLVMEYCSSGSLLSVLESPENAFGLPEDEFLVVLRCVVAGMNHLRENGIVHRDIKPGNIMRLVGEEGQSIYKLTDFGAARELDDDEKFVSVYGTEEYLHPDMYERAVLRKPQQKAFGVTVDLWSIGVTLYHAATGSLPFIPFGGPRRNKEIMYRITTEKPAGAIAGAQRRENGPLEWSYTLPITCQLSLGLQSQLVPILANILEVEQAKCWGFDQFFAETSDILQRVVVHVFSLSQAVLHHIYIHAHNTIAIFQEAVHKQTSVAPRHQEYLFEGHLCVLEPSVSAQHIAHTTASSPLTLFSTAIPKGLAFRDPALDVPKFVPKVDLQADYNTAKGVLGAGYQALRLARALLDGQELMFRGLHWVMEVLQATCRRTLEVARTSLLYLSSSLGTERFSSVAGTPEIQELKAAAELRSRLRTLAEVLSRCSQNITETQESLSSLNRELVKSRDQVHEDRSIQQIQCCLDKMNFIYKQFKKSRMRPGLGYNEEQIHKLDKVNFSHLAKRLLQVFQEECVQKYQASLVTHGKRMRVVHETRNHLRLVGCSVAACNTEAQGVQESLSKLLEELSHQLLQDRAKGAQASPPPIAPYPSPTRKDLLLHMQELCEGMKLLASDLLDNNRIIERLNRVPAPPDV
Outline: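 Recombinant IKKε and substrate were incubated with compound (10-point 1:4 series, top 30 uM final, 1% DMSO) for 90 min at 25° C, then stopped. Substrate-to-product conversion was read by LabChip microfluidic mobility shift; 10 uM staurosporine served as full-inhibition wells.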

Row | SMILES | IC50 [1] | IC50 [2]
1 | CN(C)C(=O)c1ccc(-c2cc3nccc(-c4ccc(O)c(C#N)c4)c3o2)cc1 [Compound 175, 4-[7-(3-Cyano-4-hydroxy-phenyl)-furo[3,2-b]pyridin-2-yl]-N,N-dimethyl-benzamide] | 100 to 1000 nM | 100 to 1000 nM
2 | CN(C)C(=O)c1ccc(-c2cc3nccc(-c4ccc(Oc5cccc(F)c5)c(C#N)c4)c3o2)cc1 [Compound 176, 4-{7-[3-Cyano-4-(3-fluoro-phenoxy)-phenyl]-furo[3,2-b]pyridin-2-yl}-N,N-dimethyl-benzamide] | 100 to 1000 nM | 100 to 1000 nM
3 | CN(C)C(=O)c1ccc(-c2cc3nccc(-c4ccc(Oc5ccccc5F)c(C#N)c4)c3o2)cc1 [Compound 178, 4-{7-[3-Cyano-4-(2-fluoro-phenoxy)-phenyl]-furo[3,2-b]pyridin-2-yl}-N,N-dimethyl-benzamide] | 100 to 1000 nM | 100 to 1000 nM
4 | COc1cc(C(=O)NCC2CCCCC2(F)F)ccc1-c1cc2nccc(-c3ccc(NC4CCOCC4)c(C#N)c3)c2o1 (centres unmarked) [Compound 180, 4-{7-[3-Cyano-4-(tetrahydro-pyran-4-ylamino)-phenyl]-furo[3,2-b]pyridin-2-yl}-N-(2,2-difluoro-cyclohexylmethyl)-3-methoxy-benzamide] | 100 to 1000 nM | 100 to 1000 nM
5 | CN(C)C(=O)c1ccc(-c2cc3nccc(-c4ccc(Oc5cccnc5)c(C#N)c4)c3o2)cc1 [Compound 181, 4-{7-[3-Cyano-4-(pyridin-3-yloxy)-phenyl]-furo[3,2-b]pyridin-2-yl}-N,N-dimethyl-benzamide] | 100 to 1000 nM | 100 to 1000 nM
6 | COc1cc(C(=O)N(C)C)ccc1-c1cc2nccc(-c3ccc(OC4CCN(C(=O)OC(C)(C)C)CC4)c(C#N)c3)c2o1 [Compound 182] | > 5000 nM | > 5000 nM
7 | CC(C)(C)OC(=O)Nc1ccc(-c2cc3nccc(-c4ccc(OC5CCOCC5)c(C#N)c4)c3o2)cc1 [Compound 183] | 1000 to 5000 nM | 100 to 1000 nM
8 | CC1CC(Oc2ccc(-c3ccnc4cc(-c5ccc(C(=O)N(C)C)cc5)oc34)cc2C#N)CCO1 (centres unmarked) [Compound 184, 4-{7-[3-Cyano-4-(2-methyl-tetrahydro-pyran-4-yloxy)-phenyl]-furo[3,2-b]pyridin-2-yl}-N,N-dimethyl-benzamide] | 1000 to 5000 nM | 100 to 1000 nM
9 | CN(C)C(=O)c1ccc(-c2cc3nccc(-c4ccc(OC5CCNCC5)c(C#N)c4)c3o2)cc1 [Compound 185, 4-{7-[3-Cyano-4-(piperidin-4-yloxy)-phenyl]-furo[3,2-b]pyridin-2-yl}-N,N-dimethyl-benzamide hydrochloride] | 1000 to 5000 nM | 100 to 1000 nM
10 | N#Cc1cc(-c2ccnc3cc(-c4ccc(C(=O)O)cc4)oc23)ccc1Oc1cccnc1 [Compound 186, 4-{7-[3-Cyano-4-(pyridin-3-yloxy)-phenyl]-furo[3,2-b]pyridin-2-yl}-benzoic acid] | 1000 to 5000 nM | 100 to 1000 nM
11 | CCOC(=O)c1ccc(-c2cc3nccc(-c4ccc(N5CC[C@H](F)C5)c(C#N)c4)c3o2)cc1 [Compound 187, 4-{7-[3-Cyano-4-((S)-3-fluoro-pyrrolidin-1-yl)-phenyl]-furo[3,2-b]pyridin-2-yl}-benzoic acid ethyl ester] | 1000 to 5000 nM | 100 to 1000 nM
12 | N#Cc1cc(-c2ccnc3cc(-c4ccc(C(=O)O)cc4)oc23)ccc1Oc1cccc(F)c1 [Compound 188, 4-{7-[3-Cyano-4-(3-fluoro-phenoxy)-phenyl]-furo[3,2-b]pyridin-2-yl}-benzoic acid] | 1000 to 5000 nM | 1000 to 5000 nM

More lines, now with the values ahead:

Row | IC50 [1] | IC50 [2] | SMILES
13 | < 100 nM | < 100 nM | COc1cc(C(=O)N2CC3CCCC3C2)ccc1-c1cc2nccc(-c3ccc(NC4CCOCC4)c(C#N)c3)c2o1 (centres unmarked) [Compound 137, 5-{2-[4-(Hexahydro-cyclopenta[c]pyrrole-2-carbonyl)-2-methoxy-phenyl]-furo[3,2-b]pyridin-7-yl}-2-(tetrahydro-pyran-4-ylamino)-benzonitrile]
14 | < 100 nM | < 100 nM | COc1cc(C(=O)N(C)C)ccc1-c1cc2nccc(-c3ccc(O[C@H]4CCCNC4)c(C#N)c3)c2o1 [Compound 142, 4-{7-[3-Cyano-4-((S)-piperidin-3-yloxy)-phenyl]-furo[3,2-b]pyridin-2-yl}-3-methoxy-N,N-dimethyl-benzamide]
15 | < 100 nM | < 100 nM | COc1cc(C(=O)N(C)C)ccc1-c1cc2nccc(-c3ccc(OC4CCN(C(C)=O)C4)c(C#N)c3)c2o1 (centres unmarked) [Compound 144, 4-{7-[4-(1-Acetyl-pyrrolidin-3-yloxy)-3-cyano-phenyl]-furo[3,2-b]pyridin-2-yl}-3-methoxy-N,N-dimethyl-benzamide]
16 | < 100 nM | < 100 nM | COc1cc(C(=O)NC2CCN(C(=O)OC(C)(C)C)C2)ccc1-c1cc2nccc(-c3ccc(NC4CCOCC4)c(C#N)c3)c2o1 (centres unmarked) [Compound 147, 3-(4-{7-[3-Cyano-4-(tetrahydro-pyran-4-ylamino)-phenyl]-furo[3,2-b]pyridin-2-yl}-3-methoxy-benzoylamino)-pyrrolidine-1-carboxylic acid tert-butyl ester]
17 | < 100 nM | < 100 nM | COc1cc(C(=O)NCC2CCCCC2(F)F)ccc1-c1cc2nccc(-c3ccc(OC4CCOCC4)c(C#N)c3)c2o1 (centres unmarked) [Compound 151, 4-{7-[3-Cyano-4-(tetrahydro-pyran-4-yloxy)-phenyl]-furo[3,2-b]pyridin-2-yl}-N-(2,2-difluoro-cyclohexylmethyl)-3-methoxy-benzamide]
18 | < 100 nM | < 100 nM | COc1cc(C(=O)N(C)C)ccc1-c1cc2nccc(-c3ccc(OCC4CCNC4)c(C#N)c3)c2o1 (centres unmarked) [Compound 152, 4-{7-[3-Cyano-4-(pyrrolidin-3-ylmethoxy)-phenyl]-furo[3,2-b]pyridin-2-yl}-3-methoxy-N,N-dimethyl-benzamide hydrochloride]
19 | 100 to 1000 nM | < 100 nM | COc1cc(C(=O)N(C)C)ccc1-c1cc2nccc(-c3ccc(OC4CCN(C(C)C)C4)c(C#N)c3)c2o1 (centres unmarked) [Compound 157, 4-{7-[3-Cyano-4-(1-isopropyl-pyrrolidin-3-yloxy)-phenyl]-furo[3,2-b]pyridin-2-yl}-3-methoxy-N,N-dimethyl-benzamide]
20 | 100 to 1000 nM | < 100 nM | N#Cc1cc(-c2ccnc3cc(-c4ccc(C(=O)O)cc4)oc23)ccc1OC1CC(CO)(CCl)C1 (centres unmarked) [Compound 162]
21 | 100 to 1000 nM | 100 to 1000 nM | COc1cc(C(=O)N(C)C)ccc1-c1cc2nccc(-c3ccc(NC4CCCOC4)c(C#N)c3)c2o1 (centres unmarked) [Compound 164]
22 | 100 to 1000 nM | 100 to 1000 nM | COc1cc(C(=O)N(C)C)ccc1-c1cc2nccc(-c3ccc(OCC4CNC4)c(C#N)c3)c2o1 [Compound 165, 4-{7-[4-(Azetidin-3-ylmethoxy)-3-cyano-phenyl]-furo[3,2-b]pyridin-2-yl}-3-methoxy-N,N-dimethyl-benzamide]
23 | 100 to 1000 nM | 100 to 1000 nM | N#Cc1cc(-c2ccnc3cc(-c4ccc(C(=O)O)cc4)oc23)ccc1Oc1ccccc1F [Compound 169, 4-{7-[3-Cyano-4-(2-fluoro-phenoxy)-phenyl]-furo[3,2-b]pyridin-2-yl}-benzoic acid]
24 | 100 to 1000 nM | 100 to 1000 nM | CN(C)C(=O)c1ccc(-c2cc3nccc(-c4ccc(N5CC[C@@H](N(C)C)C5)c(C#N)c4)c3o2)cc1 [Compound 172, 4-{7-[3-Cyano-4-((R)-3-dimethylamino-pyrrolidin-1-yl)-phenyl]-furo[3,2-b]pyridin-2-yl}-N,N-dimethyl-benzamide]
25 | 100 to 1000 nM | 100 to 1000 nM | CN(C)C(=O)c1ccc(-c2cc3nccc(-c4ccc(O[C@H]5CCCOC5)c(C#N)c4)c3o2)cc1 [Compound 174, 4-(7-{3-Cyano-4-[(S)-(tetrahydro-pyran-3-yl)oxy]-phenyl}-furo[3,2-b]pyridin-2-yl)-N,N-dimethyl-benzamide]
